Results as given in article PMC9599717, “The Multicellular Effects of VDAC1 N-Terminal-Derived Peptide” (Biomolecules, 2022).

Legend:
G-actin = target: T1, G-actin (Oryctolagus cuniculus, UniProt P68135); experiment: Pyrenyl-actin G-actin polymerization assay; type: biochemical, rabbit; details: 16.7 µM peptide, 2 μM MgATP–G-actin with 10% pyrenyl-labeled actin, 22 °C
T1 construct: Actin was purified from rabbit muscle as CaATP–G-actin complex; from tissue; host or cells: rabbit muscle
Protocol: Actin was purified from rabbit muscle as CaATP–G-actin complex according to the published method using Supredex S200 (Cytiva Lifesciences) size exclusion chromatography in a buffer G composed of 5 mM Tris/HCl, pH 7.8, 0.2 mM CaCl2, 0.2 mM ATP, 0.5 mM dithiothreitol, and 0.01% NaN3. The purified G-actin was fluorescently labeled on Cys-374 with N-(1-pyrene) iodoacetamide (Invitrogene) to a molar ratio of 0.8 to 1.0 pyrene/G-actin, as described previously. CaATP–G-actin was converted into MgATP–G-actin by incubation on ice for 20 min with 20 μM MgCl2 and 0.2 mM EGTA to 10 μM and was used within 1 h.
G-actin polymerization was monitored by following the increase in the fluorescence of 10% pyrenyl-labeled actin. […] Fluorescence measurements were carried out at 22 °C in a Horiba/Jobin Yvon FluoroLog Spectrofluorometer using excitation and emission wavelengths of 365 and 407 nm, respectively. Data were analyzed using GraphPad Prism4.1.681 for Windows software (San Diego, CA, USA).
Figure 5 D-Δ(1-18)N-Ter-Antp altered actin filament organization (A,B) U-87MG cells were cultured and incubated for 24 h with D-Δ(1-18)N-Ter-Antp (10 µM). Cells were stained for actin using Phalloidin-488 and visualized by confocal microscopy (A) and quantified for Phalloidin-488 staining intensity (B). […] (D) Actin interaction with VDAC1 analyzed using the MST method. […]

U-87MG cells = experiment: Cell senescence assay (β-galactosidase activity); type: cell-based, human; details: 12 h / 6 h (supplementary method)
Protocol: Figure 3 The D-Δ(1-18)N-Ter-Antp peptide induced autophagy and cellular senescence and altered the expression of apoptosis-related proteins. (A,B) U-87MG cells were treated with the indicated concentrations of D-Δ(1-18)N-Ter-Antp peptide for 12 h and then were subjected to immunoblotting for caspase-9, AIF, Bcl-xL, Bcl-2, and Bax and the relative expression level was quantified (B). (C,D) U-87MG cells were treated with the indicated concentrations of D-Δ(1-18)N-Ter-Antp peptide for 12 h and then subjected to immunoblotting for the autophagy markers LC3-I and LC3-II (C) and LC3-II quantification (D). (E,F) U-87MG cells were treated with the indicated concentrations of D-Δ(1-18)N-Ter-Antp peptide for 12 h and then subjected to β-gal activity (blue). Mouse embryonic fibroblast cells at passage 10 (MEF-P10) served as a positive control of senescent cells. Quantification of β-gal staining intensity (F). Data are presented as the mean ± SD, n = 3, * p < 0.05; ** p < 0.01; *** p < 0.001 versus control group. NS, non-specific. […]
color was read in a spectrophotometer at 680 nm. […]
U-87MG cells were treated with D-Δ(1-18)N-Ter-Antp peptide in serum-free DMEM media for 6 h at 37℃, incubated with acridine orange (1 μg/ml) for 15 min, visualized by fluorescence microscopy (Olympus LX2 - KSP, Tokyo, Japan), and images were captured with a CCD camera. About 200 cells were counted for each […]

19-FTKGYGFGL-26- RQIKIWFQNRRMKWKK [D-Δ(1-18)N-Ter-Antp]
Effect on G-actin polymerization (G-actin): inhibition of the actin filament assembly
Cellular senescence, β-galactosidase activity (U-87MG cells): showed cellular senescence
